Measured values taken from patent publication US20220009920A1 (GB005, Inc., priority 2020, published 2022).

Key:
Experiment in all cases: Large panel kinase profiling
Type in all cases: biochemical
Details in all cases: 1 μM test article, 1 mM ATP
MAP4K2/GCK = target: T1, MAP4K2/GCK (Homo sapiens, UniProt Q12851)
T1 construct: AssayQuant Technologies, Inc. (service provider)
T1 sequence (Q12851 1-820): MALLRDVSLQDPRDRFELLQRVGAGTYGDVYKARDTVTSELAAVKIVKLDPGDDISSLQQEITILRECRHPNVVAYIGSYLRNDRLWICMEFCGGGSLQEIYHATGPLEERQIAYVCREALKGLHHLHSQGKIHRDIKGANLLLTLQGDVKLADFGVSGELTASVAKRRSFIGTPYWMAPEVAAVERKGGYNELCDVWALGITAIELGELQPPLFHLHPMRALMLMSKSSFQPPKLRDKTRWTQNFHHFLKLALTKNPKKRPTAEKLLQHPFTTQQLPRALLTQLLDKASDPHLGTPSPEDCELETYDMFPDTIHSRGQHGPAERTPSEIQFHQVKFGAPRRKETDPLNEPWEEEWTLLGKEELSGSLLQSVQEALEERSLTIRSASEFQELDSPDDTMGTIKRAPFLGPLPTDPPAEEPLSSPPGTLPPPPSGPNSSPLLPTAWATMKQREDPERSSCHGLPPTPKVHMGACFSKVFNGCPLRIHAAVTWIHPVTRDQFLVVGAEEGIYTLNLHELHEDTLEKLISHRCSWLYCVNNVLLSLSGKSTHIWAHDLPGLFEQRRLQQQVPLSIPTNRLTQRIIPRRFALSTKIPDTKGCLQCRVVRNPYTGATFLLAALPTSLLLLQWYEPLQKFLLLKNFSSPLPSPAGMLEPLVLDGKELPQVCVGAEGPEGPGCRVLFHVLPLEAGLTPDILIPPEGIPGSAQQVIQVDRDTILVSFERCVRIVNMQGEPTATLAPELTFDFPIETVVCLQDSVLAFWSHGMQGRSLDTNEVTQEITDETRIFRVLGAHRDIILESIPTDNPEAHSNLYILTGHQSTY
How it was run: (§1)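 Single-point profiling at 1 μM test article used 1 mM ATP. Phosphorylation was tracked by sensor fluorescence increase over time at 30° C., with readings each minute at excitation 360 nm and emission 485 nm.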

BMX = target: T2, BMX (Homo sapiens, UniProt P51813)
T2 sequence (P51813 1-675): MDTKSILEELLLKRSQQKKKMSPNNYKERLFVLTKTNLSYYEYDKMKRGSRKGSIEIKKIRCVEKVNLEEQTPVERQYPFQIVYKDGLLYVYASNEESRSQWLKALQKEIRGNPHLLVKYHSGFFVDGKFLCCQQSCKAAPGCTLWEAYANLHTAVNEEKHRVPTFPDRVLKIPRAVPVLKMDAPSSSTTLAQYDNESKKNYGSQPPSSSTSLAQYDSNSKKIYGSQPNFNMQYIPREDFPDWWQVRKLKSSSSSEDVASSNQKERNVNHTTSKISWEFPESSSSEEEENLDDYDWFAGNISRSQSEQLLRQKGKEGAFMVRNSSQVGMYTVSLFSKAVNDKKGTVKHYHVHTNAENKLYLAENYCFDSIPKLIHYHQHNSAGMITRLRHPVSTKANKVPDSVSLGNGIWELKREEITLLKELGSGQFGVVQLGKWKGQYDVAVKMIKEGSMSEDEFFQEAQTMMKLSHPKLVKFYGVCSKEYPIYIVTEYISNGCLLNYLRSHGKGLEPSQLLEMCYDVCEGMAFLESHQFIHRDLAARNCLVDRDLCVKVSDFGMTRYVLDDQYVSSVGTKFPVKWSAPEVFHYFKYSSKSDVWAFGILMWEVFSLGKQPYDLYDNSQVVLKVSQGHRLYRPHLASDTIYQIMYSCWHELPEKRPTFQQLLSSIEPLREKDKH
How it was run: as §1

CSNK2A2/CK2A2 = target: T3, CSNK2A2/CK2A2 (Homo sapiens, UniProt P19784)
T3 construct: AssayQuant Technologies, Inc. (service laboratory)
How it was run: as §1

MYLK/MLCK = target: T4, MYLK/MLCK (Homo sapiens, UniProt Q15746)
T4 construct: AssayQuant Technologies, Inc. (assay service)
How it was run: as §1

EPHA4 = EPHA4 (Homo sapiens, UniProt P54764)
Sequence of EPHA4 (P54764 20-986, species assumed): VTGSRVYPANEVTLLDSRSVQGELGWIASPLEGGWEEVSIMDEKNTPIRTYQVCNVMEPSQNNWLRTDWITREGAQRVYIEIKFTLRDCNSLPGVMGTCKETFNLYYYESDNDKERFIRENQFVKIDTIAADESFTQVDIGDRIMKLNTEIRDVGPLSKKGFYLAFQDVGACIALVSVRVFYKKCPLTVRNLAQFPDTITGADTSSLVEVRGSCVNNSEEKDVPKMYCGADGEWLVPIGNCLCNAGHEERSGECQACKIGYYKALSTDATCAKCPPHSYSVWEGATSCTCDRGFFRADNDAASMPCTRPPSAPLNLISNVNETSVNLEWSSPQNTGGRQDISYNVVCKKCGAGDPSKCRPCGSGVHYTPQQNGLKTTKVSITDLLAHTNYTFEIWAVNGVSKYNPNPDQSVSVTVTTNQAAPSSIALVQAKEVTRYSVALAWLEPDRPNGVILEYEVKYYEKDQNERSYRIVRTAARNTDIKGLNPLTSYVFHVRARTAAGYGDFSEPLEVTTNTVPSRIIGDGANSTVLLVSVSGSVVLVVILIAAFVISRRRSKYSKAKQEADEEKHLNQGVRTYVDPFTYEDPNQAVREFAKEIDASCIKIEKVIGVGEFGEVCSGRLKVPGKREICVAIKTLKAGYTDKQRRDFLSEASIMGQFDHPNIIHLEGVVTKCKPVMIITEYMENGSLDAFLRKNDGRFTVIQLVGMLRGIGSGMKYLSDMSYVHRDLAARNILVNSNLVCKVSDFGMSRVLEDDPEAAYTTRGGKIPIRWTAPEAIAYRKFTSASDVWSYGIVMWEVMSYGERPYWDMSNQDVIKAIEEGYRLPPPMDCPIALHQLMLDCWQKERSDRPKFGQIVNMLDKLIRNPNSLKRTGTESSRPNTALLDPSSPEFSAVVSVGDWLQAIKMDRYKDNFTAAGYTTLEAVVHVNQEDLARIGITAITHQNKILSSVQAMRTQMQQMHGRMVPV
How it was run: as §1

LCK = LCK (Homo sapiens, UniProt P06239)
Sequence of LCK (P06239 whole entry, species assumed): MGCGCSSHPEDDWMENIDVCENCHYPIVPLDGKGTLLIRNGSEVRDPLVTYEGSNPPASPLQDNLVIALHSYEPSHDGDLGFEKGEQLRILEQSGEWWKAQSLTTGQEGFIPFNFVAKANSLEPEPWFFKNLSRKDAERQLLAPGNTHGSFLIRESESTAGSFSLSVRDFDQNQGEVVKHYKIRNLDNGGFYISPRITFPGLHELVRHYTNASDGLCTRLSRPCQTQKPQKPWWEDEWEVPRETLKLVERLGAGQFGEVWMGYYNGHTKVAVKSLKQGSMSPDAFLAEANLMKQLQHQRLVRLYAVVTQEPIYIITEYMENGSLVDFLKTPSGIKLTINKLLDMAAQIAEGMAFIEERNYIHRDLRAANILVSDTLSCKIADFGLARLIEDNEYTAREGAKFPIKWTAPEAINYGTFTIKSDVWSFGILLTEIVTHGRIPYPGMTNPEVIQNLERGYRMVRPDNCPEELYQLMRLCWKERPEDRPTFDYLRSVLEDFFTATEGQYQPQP
How it was run: as §1

RPS6KA4/MSK2 = target: T5, RPS6KA4/MSK2 (Homo sapiens, UniProt O75676)
T5 construct: AssayQuant Technologies, Inc. (contract assay)
T5 sequence (O75676 whole entry): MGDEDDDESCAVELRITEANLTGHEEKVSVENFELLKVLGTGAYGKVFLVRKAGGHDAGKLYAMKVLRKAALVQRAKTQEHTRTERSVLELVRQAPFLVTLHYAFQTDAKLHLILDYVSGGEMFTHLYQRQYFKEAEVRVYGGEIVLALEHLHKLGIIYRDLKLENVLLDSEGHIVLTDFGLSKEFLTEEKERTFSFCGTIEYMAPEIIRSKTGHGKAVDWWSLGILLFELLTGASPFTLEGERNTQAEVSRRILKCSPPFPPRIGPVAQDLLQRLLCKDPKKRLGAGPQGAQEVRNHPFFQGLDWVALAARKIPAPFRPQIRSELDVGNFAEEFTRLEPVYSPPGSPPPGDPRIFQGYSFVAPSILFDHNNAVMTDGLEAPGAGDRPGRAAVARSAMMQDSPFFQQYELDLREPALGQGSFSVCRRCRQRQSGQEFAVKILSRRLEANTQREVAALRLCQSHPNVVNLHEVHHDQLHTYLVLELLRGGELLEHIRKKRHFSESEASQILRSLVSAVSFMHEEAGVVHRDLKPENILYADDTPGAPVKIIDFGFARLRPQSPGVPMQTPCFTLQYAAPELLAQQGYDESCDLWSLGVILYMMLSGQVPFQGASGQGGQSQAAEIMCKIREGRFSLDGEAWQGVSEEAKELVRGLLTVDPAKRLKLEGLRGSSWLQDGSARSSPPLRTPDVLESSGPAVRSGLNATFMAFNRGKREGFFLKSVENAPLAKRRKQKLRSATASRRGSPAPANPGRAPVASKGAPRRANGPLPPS
How it was run: as §1

CDK4/D3 = target: T6, CDK4/D3 (Homo sapiens, UniProt P11802)
T6 construct: AssayQuant Technologies, Inc. (ran the panel)
T6 sequence (P11802 whole entry, species assumed): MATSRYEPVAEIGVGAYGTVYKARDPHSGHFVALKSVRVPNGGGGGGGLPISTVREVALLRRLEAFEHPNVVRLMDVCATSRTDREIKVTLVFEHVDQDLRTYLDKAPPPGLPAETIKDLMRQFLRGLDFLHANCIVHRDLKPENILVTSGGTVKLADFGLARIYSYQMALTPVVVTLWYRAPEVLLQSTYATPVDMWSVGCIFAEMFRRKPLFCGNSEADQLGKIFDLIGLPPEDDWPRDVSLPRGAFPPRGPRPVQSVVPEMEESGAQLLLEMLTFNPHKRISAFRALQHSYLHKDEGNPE
T6 sequence (P30281 whole entry partner, species assumed): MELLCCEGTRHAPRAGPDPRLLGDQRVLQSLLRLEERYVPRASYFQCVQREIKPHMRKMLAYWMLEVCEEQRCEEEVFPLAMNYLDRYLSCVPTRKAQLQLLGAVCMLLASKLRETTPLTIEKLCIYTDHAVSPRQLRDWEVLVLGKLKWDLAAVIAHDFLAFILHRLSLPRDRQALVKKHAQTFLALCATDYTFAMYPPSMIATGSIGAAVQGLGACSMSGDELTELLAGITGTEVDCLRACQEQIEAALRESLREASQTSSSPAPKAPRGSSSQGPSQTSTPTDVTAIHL
How it was run: as §1

CAMK2A = CAMK2A (Homo sapiens, UniProt Q9UQM7)
How it was run: as §1

MAPK14/P38A = target: T7, MAPK14/P38A (Homo sapiens, UniProt Q16539)
T7 construct: AssayQuant Technologies, Inc. (service provider)
How it was run: as §1

PTK2 = PTK2 (Homo sapiens, UniProt Q05397)
Sequence of PTK2 (Q05397 whole entry, species assumed): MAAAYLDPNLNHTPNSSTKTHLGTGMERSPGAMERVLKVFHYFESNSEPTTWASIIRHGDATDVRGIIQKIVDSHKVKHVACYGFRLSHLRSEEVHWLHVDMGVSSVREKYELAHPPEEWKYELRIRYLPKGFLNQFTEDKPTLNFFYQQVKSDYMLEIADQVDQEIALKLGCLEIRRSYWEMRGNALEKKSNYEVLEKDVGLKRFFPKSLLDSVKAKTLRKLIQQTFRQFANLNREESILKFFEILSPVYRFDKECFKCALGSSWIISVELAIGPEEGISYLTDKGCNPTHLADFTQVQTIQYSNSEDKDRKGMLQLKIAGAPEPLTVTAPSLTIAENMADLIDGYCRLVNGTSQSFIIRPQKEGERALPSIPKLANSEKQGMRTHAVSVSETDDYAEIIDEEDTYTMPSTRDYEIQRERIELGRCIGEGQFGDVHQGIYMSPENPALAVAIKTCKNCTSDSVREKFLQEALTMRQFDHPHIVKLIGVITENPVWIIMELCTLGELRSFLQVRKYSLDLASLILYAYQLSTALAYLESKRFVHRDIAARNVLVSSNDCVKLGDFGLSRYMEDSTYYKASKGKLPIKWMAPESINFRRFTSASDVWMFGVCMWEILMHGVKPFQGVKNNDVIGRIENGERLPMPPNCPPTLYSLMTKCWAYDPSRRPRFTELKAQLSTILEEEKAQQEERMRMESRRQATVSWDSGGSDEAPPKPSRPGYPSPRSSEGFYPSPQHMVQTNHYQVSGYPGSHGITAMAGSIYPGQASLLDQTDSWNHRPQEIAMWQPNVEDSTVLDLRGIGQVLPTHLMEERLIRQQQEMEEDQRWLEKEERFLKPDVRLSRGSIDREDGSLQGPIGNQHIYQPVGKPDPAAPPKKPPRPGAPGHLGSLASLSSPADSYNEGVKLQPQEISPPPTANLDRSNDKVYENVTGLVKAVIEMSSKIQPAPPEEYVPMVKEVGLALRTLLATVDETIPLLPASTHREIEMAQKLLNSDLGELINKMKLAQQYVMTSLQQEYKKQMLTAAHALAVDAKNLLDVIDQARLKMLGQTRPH
How it was run: as §1

CAMK2D = target: T8, CAMK2D (Homo sapiens, UniProt Q13557)
T8 construct: AssayQuant Technologies, Inc. (ran the panel)
T8 sequence (Q13557 whole entry, species assumed): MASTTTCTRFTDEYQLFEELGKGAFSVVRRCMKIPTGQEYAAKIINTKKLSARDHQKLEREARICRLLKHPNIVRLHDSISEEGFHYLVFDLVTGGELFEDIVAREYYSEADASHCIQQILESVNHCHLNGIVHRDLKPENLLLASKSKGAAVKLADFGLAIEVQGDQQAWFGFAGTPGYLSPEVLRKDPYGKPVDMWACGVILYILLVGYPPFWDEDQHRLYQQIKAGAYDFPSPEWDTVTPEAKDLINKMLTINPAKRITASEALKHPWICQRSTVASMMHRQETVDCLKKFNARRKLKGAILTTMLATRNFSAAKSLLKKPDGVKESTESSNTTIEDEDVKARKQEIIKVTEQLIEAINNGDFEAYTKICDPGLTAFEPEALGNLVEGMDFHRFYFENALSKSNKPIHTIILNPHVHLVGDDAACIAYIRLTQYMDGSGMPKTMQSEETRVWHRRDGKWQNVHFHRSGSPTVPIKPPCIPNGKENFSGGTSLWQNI
How it was run: as §1

CDK5/P25 = target: T9, CDK5/P25 (Homo sapiens, UniProt Q00535)
T9 construct: AssayQuant Technologies, Inc. (ran the panel)
T9 sequence (Q00535 whole entry, species assumed): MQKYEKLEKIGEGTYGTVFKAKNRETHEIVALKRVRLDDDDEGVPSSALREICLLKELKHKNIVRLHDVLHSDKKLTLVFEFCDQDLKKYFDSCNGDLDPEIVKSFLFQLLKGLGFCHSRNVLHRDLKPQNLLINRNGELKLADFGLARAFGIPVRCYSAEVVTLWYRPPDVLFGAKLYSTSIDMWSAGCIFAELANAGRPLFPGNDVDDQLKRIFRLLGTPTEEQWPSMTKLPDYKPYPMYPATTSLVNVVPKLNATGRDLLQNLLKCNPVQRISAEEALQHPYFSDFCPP
T9 sequence (Q15078 99-307 partner limits assumed, species assumed): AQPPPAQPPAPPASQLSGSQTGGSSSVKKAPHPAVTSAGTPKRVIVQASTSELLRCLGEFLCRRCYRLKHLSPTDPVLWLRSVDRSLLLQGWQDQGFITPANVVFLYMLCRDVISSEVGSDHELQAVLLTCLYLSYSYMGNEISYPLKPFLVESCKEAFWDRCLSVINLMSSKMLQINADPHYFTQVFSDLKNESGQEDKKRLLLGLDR
How it was run: as §1

ERN1 = ERN1 (Homo sapiens, UniProt O75460)
How it was run: as §1

Row | Structure (SMILES) | inhibition at 1 µM (MAP4K2/GCK) | inhibition at 1 µM (BMX) | inhibition at 1 µM (CSNK2A2/CK2A2) | inhibition at 1 µM (MYLK/MLCK) | inhibition at 1 µM (EPHA4) | inhibition at 1 µM (LCK) | inhibition at 1 µM (RPS6KA4/MSK2) | inhibition at 1 µM (CDK4/D3) | inhibition at 1 µM (CAMK2A) | inhibition at 1 µM (MAPK14/P38A) | inhibition at 1 µM (PTK2) | inhibition at 1 µM (CAMK2D) | inhibition at 1 µM (CDK5/P25) | inhibition at 1 µM (ERN1)
1 | C=CC(=O)N1CCCC(c2c(F)cc(C(N)=O)c3[nH]c4c(c23)CCCCC4)C1 (single isomer, unassigned) [Compound 5-6] | -46.6% | 42% | 11.4% | 19.7% | 4.2% | 0.2% | -6.1% | -4.9% | 4.9% | -8.3% | -69.1% | 1.1% | -11.1% | -5.4%
2 | C=CC(=O)N1CCC[C@@H](c2c(F)cc(C(N)=O)c3[nH]c4c(c23)CC2(CC4)CC2)C1 [Compound 6-2, (S)-5-(1-acryloylpiperidin-3-yl)-6-fluoro-1,2,4,9-tetrahydrospiro[carbazole-3,1′-cyclopropane]-8-carboxamide] | -1.3% | 86% | -141% | -24% | 4.9% | 15.9% | -23.2% | -13% | 35.8% | 28.2% | 16.5% | 8.4% | -13% | 3.1%
3 | C=CC(=O)N1CCC[C@@H](c2c(F)cc(C(N)=O)c3[nH]c4c(c23)CCC4)C1 [Compound 10-2, (S)-8-(1-acryloylpiperidin-3-yl)-7-fluoro-1,2,3,4-tetrahydrocyclo-penta[b]indole-5-carboxamide] | -1.3% | 65.2% | -144% | -27.4% | -44.2% | 18.3% | -21.2% | -19.5% | 14.7% | 5% | -14.6% | -10.7% | 1.6% | -2.9%
